Reference: publication PMC10122656, “Siglec-6 mediates the uptake of extracellular vesicles through a noncanonical glycolipid binding pocket” (Nature Communications, 2023)
“And” between values parts separate entries of the source, which are not always exact repeats. Equal values may be shown once.

Legend:
Assay in all cases: Cell assay (liposome/EV binding, flow cytometry)
Assay type in all cases: cell-based
[1] = molecular target: T1, CD33 WT CHO cells (Homo sapiens, UniProt P20138); settings: 3 mol% ganglioside liposomes, replicates
T1 construct: expressed in transfected cells
Procedure, shortened: (§1)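 Extruded PEGylated DSPC/cholesterol liposomes (100 nm filter; 130 ± 35 nm) bearing Siglec ligand and AF647 lipids. Cells + 50 µM liposome or 50 µg/mL EV, DMEM F12/5% FBS, 37 °C, 30 min; washed; anti-Siglec 1:250, ice 30 min; flow, Siglec+ gate.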

[2] = molecular target: T2, Siglec-8 R125A CHO cells (Homo sapiens, UniProt Q9NYZ4, R125A); settings: Sig-8 R125A; 3 mol% ganglioside liposomes; replicates
T2 construct: expressed in transfected cells
Procedure, shortened: (§2)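 Binding of AF647-labelled, Siglec ligand-bearing liposomes (130 ± 35 nm) or EVs was measured on transfected CHO cells. Exposure was 50 µM or 50 µg/mL for 30 min at 37 °C; Siglec-positive cells were gated for analysis.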

[3] = molecular target: T3, CD33 R119A CHO cells (Homo sapiens, UniProt P20138, R119A); settings: 3 mol% ganglioside liposomes, replicates
T3 construct: expressed in transfected cells
Procedure, shortened: as §1

[4] = molecular target: T4, Siglec-11 R120A CHO cells (Homo sapiens, UniProt Q96RL6, R132A); settings: Sig-11 R120A; 3 mol% ganglioside liposomes; replicates
T4 construct: expressed in transfected cells
T4 sequence (Q96RL6 28-698 R132A): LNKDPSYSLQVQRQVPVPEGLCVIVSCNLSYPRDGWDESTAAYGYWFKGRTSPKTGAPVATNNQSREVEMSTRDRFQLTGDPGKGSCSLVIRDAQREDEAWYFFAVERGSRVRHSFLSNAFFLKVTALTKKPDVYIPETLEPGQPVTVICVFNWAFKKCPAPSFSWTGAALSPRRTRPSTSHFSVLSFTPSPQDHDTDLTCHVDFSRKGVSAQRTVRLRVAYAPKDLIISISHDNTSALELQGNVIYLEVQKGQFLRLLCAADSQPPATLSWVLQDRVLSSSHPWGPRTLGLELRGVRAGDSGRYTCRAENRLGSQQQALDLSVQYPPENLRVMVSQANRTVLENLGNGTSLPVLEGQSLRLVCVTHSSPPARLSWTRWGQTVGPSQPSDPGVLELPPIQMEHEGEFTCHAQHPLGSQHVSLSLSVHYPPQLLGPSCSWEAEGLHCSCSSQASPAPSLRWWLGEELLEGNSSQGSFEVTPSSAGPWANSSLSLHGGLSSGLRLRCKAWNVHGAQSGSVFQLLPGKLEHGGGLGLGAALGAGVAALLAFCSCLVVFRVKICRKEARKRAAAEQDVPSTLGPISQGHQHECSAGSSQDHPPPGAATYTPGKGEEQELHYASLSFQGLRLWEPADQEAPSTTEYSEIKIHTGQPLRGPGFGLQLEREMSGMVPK
Procedure, shortened: as §1

[5] = molecular target: T5, CD22 WT CHO cells (Homo sapiens, UniProt P20273); settings: 3 mol% ganglioside liposomes, replicates
T5 construct: expressed in transfected cells
T5 sequence (P20273 20-847): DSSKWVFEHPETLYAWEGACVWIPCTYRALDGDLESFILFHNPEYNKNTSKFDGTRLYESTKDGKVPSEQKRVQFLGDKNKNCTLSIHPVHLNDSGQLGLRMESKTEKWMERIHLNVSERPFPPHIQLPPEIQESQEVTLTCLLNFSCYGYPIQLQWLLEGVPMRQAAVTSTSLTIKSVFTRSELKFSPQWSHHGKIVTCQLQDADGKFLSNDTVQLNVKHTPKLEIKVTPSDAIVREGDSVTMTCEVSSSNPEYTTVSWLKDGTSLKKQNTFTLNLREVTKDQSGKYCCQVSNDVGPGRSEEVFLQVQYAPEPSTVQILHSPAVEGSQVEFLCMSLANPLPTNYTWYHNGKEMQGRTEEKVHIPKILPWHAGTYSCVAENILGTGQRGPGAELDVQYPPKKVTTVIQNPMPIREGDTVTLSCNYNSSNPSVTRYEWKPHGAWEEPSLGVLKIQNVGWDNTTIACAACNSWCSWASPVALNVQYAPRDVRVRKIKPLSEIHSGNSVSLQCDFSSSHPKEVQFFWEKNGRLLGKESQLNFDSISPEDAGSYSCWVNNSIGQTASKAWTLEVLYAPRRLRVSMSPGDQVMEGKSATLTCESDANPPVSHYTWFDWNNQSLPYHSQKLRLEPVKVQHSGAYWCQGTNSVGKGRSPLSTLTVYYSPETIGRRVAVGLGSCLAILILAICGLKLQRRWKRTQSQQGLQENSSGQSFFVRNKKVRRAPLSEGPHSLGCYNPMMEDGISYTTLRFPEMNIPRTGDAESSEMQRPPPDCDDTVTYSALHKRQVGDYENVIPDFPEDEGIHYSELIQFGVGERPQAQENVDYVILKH
Procedure, shortened: as §2

[6] = molecular target: T6, Siglec-1 R116A CHO cells (Homo sapiens, UniProt Q9BZZ2, R116A); settings: Sig-1 R116A; 3 mol% ganglioside liposomes; replicates
T6 construct: expressed in transfected cells
Procedure, shortened: as §2

T2 sequence (Q9NYZ4 17-499 R125A): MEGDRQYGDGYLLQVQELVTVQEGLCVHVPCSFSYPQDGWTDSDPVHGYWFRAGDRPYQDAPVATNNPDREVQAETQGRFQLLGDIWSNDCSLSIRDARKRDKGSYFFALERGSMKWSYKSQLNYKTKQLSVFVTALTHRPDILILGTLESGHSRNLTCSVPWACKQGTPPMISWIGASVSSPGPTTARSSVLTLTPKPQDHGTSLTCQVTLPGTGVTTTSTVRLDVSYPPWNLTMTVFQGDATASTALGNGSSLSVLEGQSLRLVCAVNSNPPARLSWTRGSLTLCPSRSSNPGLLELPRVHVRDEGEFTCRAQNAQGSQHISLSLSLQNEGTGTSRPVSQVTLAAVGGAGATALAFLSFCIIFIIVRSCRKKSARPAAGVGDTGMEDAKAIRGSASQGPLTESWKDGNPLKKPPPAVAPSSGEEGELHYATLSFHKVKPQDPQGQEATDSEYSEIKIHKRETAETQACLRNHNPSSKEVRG
T6 sequence (Q9BZZ2 20-1709 R116A): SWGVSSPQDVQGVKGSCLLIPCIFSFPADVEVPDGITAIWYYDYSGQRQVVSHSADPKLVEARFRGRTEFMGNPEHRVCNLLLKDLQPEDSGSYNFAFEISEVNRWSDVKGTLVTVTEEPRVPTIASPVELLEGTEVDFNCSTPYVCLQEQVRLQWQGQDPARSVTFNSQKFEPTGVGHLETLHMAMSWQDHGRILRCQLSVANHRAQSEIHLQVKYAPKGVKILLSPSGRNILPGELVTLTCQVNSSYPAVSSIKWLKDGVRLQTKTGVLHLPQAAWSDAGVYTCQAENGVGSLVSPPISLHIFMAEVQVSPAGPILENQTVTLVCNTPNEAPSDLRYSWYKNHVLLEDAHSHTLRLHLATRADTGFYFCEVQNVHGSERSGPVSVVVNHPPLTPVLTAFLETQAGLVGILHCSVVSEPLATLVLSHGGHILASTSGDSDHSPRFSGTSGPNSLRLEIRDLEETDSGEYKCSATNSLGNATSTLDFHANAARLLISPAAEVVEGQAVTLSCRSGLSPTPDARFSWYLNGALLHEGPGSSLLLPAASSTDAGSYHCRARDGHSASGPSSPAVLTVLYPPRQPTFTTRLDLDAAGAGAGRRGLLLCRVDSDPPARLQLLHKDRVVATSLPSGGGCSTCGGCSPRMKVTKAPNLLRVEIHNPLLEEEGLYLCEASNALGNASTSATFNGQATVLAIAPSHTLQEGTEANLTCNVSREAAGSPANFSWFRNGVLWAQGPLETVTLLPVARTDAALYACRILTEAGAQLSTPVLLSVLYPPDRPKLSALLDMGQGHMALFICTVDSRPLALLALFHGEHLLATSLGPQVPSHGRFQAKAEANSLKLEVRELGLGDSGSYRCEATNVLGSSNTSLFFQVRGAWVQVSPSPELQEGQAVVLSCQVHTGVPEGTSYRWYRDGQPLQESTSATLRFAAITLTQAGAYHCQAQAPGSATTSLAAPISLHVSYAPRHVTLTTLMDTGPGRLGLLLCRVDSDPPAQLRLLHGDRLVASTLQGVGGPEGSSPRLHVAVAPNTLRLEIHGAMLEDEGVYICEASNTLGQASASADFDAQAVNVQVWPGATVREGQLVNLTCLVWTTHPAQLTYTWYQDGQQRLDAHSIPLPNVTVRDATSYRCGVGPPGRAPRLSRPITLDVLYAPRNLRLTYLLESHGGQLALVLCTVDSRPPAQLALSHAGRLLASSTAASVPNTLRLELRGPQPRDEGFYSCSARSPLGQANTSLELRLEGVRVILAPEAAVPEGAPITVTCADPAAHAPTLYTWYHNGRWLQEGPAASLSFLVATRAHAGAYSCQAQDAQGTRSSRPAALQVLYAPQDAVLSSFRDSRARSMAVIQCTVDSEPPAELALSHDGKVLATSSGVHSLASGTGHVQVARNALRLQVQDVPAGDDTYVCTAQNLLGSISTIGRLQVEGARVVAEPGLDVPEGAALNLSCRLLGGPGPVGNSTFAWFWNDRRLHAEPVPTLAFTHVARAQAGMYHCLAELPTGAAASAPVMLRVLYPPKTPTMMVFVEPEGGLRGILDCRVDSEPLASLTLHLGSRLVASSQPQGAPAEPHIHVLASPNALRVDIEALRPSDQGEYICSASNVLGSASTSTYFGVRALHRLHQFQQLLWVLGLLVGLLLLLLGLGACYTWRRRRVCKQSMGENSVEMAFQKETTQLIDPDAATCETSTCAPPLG
T1 sequence (P20138 18-364): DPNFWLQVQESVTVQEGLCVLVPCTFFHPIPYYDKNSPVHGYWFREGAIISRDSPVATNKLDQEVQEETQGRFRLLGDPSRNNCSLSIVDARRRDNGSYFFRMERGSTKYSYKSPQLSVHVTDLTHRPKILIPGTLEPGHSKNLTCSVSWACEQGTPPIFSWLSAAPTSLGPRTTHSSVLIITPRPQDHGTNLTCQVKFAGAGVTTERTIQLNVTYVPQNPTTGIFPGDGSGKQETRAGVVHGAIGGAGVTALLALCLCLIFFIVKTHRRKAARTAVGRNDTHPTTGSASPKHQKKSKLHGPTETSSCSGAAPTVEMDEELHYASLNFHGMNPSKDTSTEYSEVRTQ
T3 sequence (P20138 18-364 R119A): as the sequence (P20138 18-364) above, with R102A counted along it

| Substance | log10(MFI AF647) of GLL relative to log10(MFI AF647) of the same GLL against UT CHO cells (Fig. 2a) [1] | log10(MFI AF647) of GLL relative to log10(MFI AF647) of the same GLL against UT CHO cells (Fig. 2a) [2] | log10(MFI AF647) of GLL relative to log10(MFI AF647) of the same GLL against UT CHO cells (Fig. 2a) [3] | log10(MFI AF647) of GLL relative to log10(MFI AF647) of the same GLL against UT CHO cells (Fig. 2a) [4] | log10(MFI AF647) of GLL relative to log10(MFI AF647) of the same GLL against UT CHO cells (Fig. 2a) [5] | log10(MFI AF647) of GLL relative to log10(MFI AF647) of the same GLL against UT CHO cells (Fig. 2a) [6] |
| --- | --- | --- | --- | --- | --- | --- |
| GD1a | -0.09 and -0.06 and -0.03 and 0.01 | -0.1 and -0.13 (3×) | 0 (2×) and -0.03 and -0.02 | -0.11 and -0.13 and -0.12 (2×) | 0.06 (2×) and 0.03 and 0.05 | -0.06 (2×) and -0.02 and -0.08 |
| GD1b | -0.13 and -0.1 (2×) and -0.07 | -0.14 and -0.15 and -0.17 and -0.19 | -0.06 and -0.07 and -0.04 and -0.05 | -0.11 (2×) and -0.12 (2×) | -0.04 and -0.05 and -0.06 (2×) | -0.26 (2×) and -0.25 and -0.21 |
| GD3 | -0.03 (2×) and -0.01 and 0 | -0.04 (2×) and -0.08 (2×) | 0 (2×) and 0.03 (2×) | -0.1 and -0.11 and -0.12 (2×) | 0.09 and 0.07 and 0.1 (2×) | -0.04 (2×) and -0.02 and 0.05 |
| GM1 | -0.29 and -0.27 and -0.21 and -0.16 | -0.02 and -0.06 and -0.08 and -0.03 | -0.15 and -0.13 and -0.21 (2×) | 0.1 and 0.05 and 0.07 and 0.13 | -0.03 (2×) and -0.04 and -0.06 | -0.21 and -0.24 and -0.22 and -0.2 |
| GM2 | -0.08 and -0.05 and -0.02 and 0 | -0.12 and -0.14 and -0.17 (2×) | -0.01 and 0 and 0.03 (2×) | -0.07 (2×) and -0.06 (2×) | 0.01 (3×) and 0 | -0.08 and -0.1 (2×) and -0.07 |
| GM3 | -0.19 and -0.14 and -0.12 and -0.08 | -0.18 and -0.17 and -0.2 (2×) | -0.06 (2×) and -0.03 (2×) | -0.13 (3×) and -0.12 | -0.16 and -0.15 (3×) | -0.19 and -0.23 and -0.18 and -0.21 |
| GM4 | -0.13 and -0.11 and -0.09 and -0.02 | -0.14 (3×) and -0.16 | -0.05 (2×) and -0.02 (2×) | -0.11 (2×) and -0.1 (2×) | 0.05 (2×) and 0.06 and 0.07 | -0.09 and -0.12 and -0.06 and -0.1 |
| GQ1b | -0.12 (2×) and -0.14 and -0.09 | 0.01 and -0.02 and -0.04 and -0.05 | -0.11 (2×) and -0.1 and -0.09 | -0.19 (2×) and -0.22 and -0.18 | -0.05 (3×) and -0.04 | -0.29 and -0.27 and -0.24 and -0.3 |
| GT1b | -0.09 and -0.1 and -0.08 and -0.06 | -0.22 (2×) and -0.23 and -0.24 | -0.06 | -0.17 (2×) and -0.16 and -0.19 | 0.06 (2×) and 0.04 and 0.05 | -0.14 (2×) and -0.15 and -0.1 |
